# Literature values in US7947467B2, “Methods for monitoring pathological conditions in a subject” (Common Sense Ltd., priority 2001, dated 2011).
# Conditions: in aqueous solution
row,Molecule,pKa
1,Nitrazine Yellow,6.6

# Conditions: not given
row,Molecule,aqueous pH transition range
1,Nitrazine Yellow,6.0-7.2
2,Cc1cc(C2(c3cc(C)c(O)cc3C)OS(=O)(=O)c3ccccc32)c(C)cc1O [Xylenol Blue],8.0-9.6
3,Cc1cc(O)ccc1C1(c2ccc(O)cc2C)OS(=O)(=O)c2ccccc21 [m-Cresol purple],7.4-9.0
4,O=C1c2ccccc2C(=O)c2c1ccc(O)c2O [Alizarin],5.5-6.8
5,Cc1c(C2(c3cc(C(C)C)c(O)c(Br)c3C)OS(=O)(=O)c3ccccc32)cc(C(C)C)c(O)c1Br [Bromthymol Blue],6.0-7.6
6,Cc1cc(C2(c3cc(C)c(O)c(Br)c3C)OS(=O)(=O)c3ccccc32)c(C)c(Br)c1O [Bromoxylenol Blue],6.0-7.6
7,Cc1cc2nc3ccc(N(C)C)cc3nc2cc1N.Cl [Neutral Red],6.8-8.0
8,Cc1cc(O)c(C(C)C)cc1C1(c2cc(C(C)C)c(O)cc2C)OS(=O)(=O)c2ccccc21 [Thymol Blue],8.0-9.2
9,O=S1(=O)OC(c2ccc(O)c(Cl)c2)(c2ccc(O)c(Cl)c2)c2ccccc21 [Chlorophenol Red],5.2-8.8
10,Cc1cc(C2(c3cc(C)c(O)c(Br)c3)OS(=O)(=O)c3ccccc32)cc(Br)c1O [Bromcresol Purple],5.2-6.8
11,Cc1cc(C2(c3ccc(O)c(C)c3)OS(=O)(=O)c3ccccc32)ccc1O [Cresol Red],7.2-8.8
